Source: US10966955B2, “Ocular drug delivery system and uses thereof” (Chang Gung University, priority 2020, dated 2021)

Assays:
[1] = In vitro drug release of the ocular drug delivery system in sPLA2 solution (HPLC); format: physicochemical
Description: A suitable amount of the ocular drug delivery system obtained in Example 1 was immersed in 1 mL of a sPLA2 solution (containing 0.1 mg/mL sPLA2), followed by incubation at 37° C. with reciprocal shaking (100 rpm) in a thermostatically controlled water bath for a designated time period ranging from 0 minutes to 168 hours. Sample solutions were taken at each time point of 0, 1, 2, 3, 4, 5, 12, 24, 48, 72, 96, 120, 144, and 168 hours. The sample solutions thus obtained were centrifuged at 1000 rpm for 3 minutes. The resultant supernatants were collected and then subjected to high performance liquid chromatography (HPLC) analysis using a L-2400 UV detector, a L-2130 pump (Hitachi, Tokyo, Japan), and a Mightysil RP-18 column (Kanto Chemical, Tokyo, Japan). The HPLC operating conditions applied were described as follows. The mobile phase was 90% water with 0.1% trifluroacetic acid and 10% acetonitrile, and the flow rate of the mobile phase was 1 mL/min. The injection volume was 10 μL. The elution peak was detected by measuring absorbance at 280 nm (for EGCG), 305 nm (for β-1,3 glucan), and 274 nm (for SB-431542), respectively. The amount of EGCG released from the sPLA2 hydrolysable liposomes was calculated with reference to a standard calibration curve of EGCG. Results from five independent measurements were averaged and further used to calculate the cumulative released amount of EGCG.

[2] = In vitro drug release of the ocular drug delivery system in hyaluronidase solution (HPLC); format: physicochemical; conditions: for release rate compared with the other drugs (in words): hyaluronidase solution, EGCG in sPLA2 solution
Description: A suitable amount of the ocular drug delivery system obtained in Example 1 was immersed in 1 mL of a sPLA2 solution (containing 0.1 mg/mL sPLA2), followed by incubation at 37° C. with reciprocal shaking (100 rpm) in a thermostatically controlled water bath for a designated time period ranging from 0 minutes to 168 hours. Sample solutions were taken at each time point of 0, 1, 2, 3, 4, 5, 12, 24, 48, 72, 96, 120, 144, and 168 hours.
The sample solutions thus obtained were centrifuged at 1000 rpm for 3 minutes. The resultant supernatants were collected and then subjected to high performance liquid chromatography (HPLC) analysis using a L-2400 UV detector, a L-2130 pump (Hitachi, Tokyo, Japan), and a Mightysil RP-18 column (Kanto Chemical, Tokyo, Japan).
The HPLC operating conditions applied were described as follows. The mobile phase was 90% water with 0.1% trifluroacetic acid and 10% acetonitrile, and the flow rate of the mobile phase was 1 mL/min. The injection volume was 10 μL. The elution peak was detected by measuring absorbance at 280 nm (for EGCG), 305 nm (for β-1,3 glucan), and 274 nm (for SB-431542), respectively.
The release profile of β-1,3-glucan from the first HA-SH nanoparticles and the release profile of SB-431542 from the second HA-SH nanoparticles were evaluated substantially according to the procedures as described above, except that the ocular drug delivery system was immersed in 1 mL of a hyaluronidase solution (containing 100 U/mL hyaluronidase).

[3] = test system: SIRC cells; assay: Cell migration assay of SIRC cells; format: cell-based, rabbit; conditions: cell-free gap about 180 μm, 18 hours
Description: (b) Rabbit corneal epithelial (SIRC) cells (BCRC NO: 60093) were obtained from the Bioresources Collection and Research Center (BCRC) of Food Industry Research and Development Institute (FIRDI) (Hsinchu, Taiwan). The SIRC cells were grown in a regular growth medium containing minimum essential medium (MEM) and 10% fetal bovine serum (FBS), and were cultivated in a humidified atmosphere (5% CO2, 37° C.).
A cell culture insert was placed into each well of a 12-well culture plate. The SIRC cells were seeded into the culture tanks on both sides of the culture insert at a cell number of 1×10^4 cells and then incubated overnight to allow cell attachment. Thereafter, the culture insert was removed to create a cell-free gap with a width of about 180 μm, and then the liquid in each well was removed. Each well was washed three times with phosphate-buffered saline (PBS), followed by addition of 200 μL of Eagle's minimum essential medium (MEM). […]
At 0 and 18 hours after incubation, the cell migration profile of the SIRC cells in each group was photographed using an inverted phase contrast microscope (Nikon, Melville, N.Y., USA), and the width of the cell-free gap was measured by ImageJ software. The cell migration rate (%) was calculated using the following Equation (I): Cell migration rate (%)=[A−B)/A]×100 (I) […]

release of EGCG (in words) ([1]; within 8 hours following initiation of the release test, sPLA2 solution) | cumulative release rate of EGCG from the sPLA2 hydrolysable liposomes ([1]; within 20 hours, 0.1 mg/mL sPLA2 solution, 37° C.) | cumulative release rate of β-1,3 glucan from the first HA-SH nanoparticles ([2]; within 70 hours after initiation of the release test, 100 U/mL hyaluronidase solution, 37° C.) | cumulative release rate of SB-431542 from the second HA-SH nanoparticles ([2]; at the 160th hour after initiation of the release test, 100 U/mL hyaluronidase solution, 37° C.) | Compound | release rate compared with the other drugs (in words) [2] | Cell migration rate (%) [3]
released in a large amount | 90% |  |  | O=C(O[C@@H]1Cc2c(O)cc(O)cc2O[C@@H]1c1cc(O)c(O)c(O)c1)c1cc(O)c(O)c(O)c1 [EGCG, epigallocatechin gallate] |  | 
 |  | 90% |  | β-1,3-glucan [β-1,3 glucan] | slower than that of EGCG | 73%
 |  |  | 80% | NC(=O)c1ccc(-c2nc(-c3ccc4c(c3)OCO4)c(-c3ccccn3)[nH]2)cc1 [SB-431542] | slower than those of EGCG and β-1,3 glucan | 
